Structures can show the parent of a compound that is named as a salt.
What was measured:
[1] = tested on: hepatoblasts induced from human iPS cells 201B6; test: Induction of albumin-positive cells in Stage 3 (anti-albumin immunostaining, albumin mRNA by quantitative PCR); assay type: cell-based
Procedure: The effects of analogous compounds (adrenergic receptor agonist, in particular, an agent having α receptor stimulating action) serving as an alternative compound for a methoxamine hydrochloride were checked. In Stage 3 as mentioned above, cells were cultured in a Hepatocyte Culture Medium (HCM SingleQuots Kit) supplemented with 1 μM etilefrine, phenylephrine or methoxamine hydrochloride for 8 days. The content ratio of albumin-positive cells and the mRNA expression level of albumin were measured in the same manner as above. […] Furthermore, the amount of albumin secreted from the obtained cell population into the culture mediumliquid was measured by ELISA.

[2] = tested on: hepatoblasts induced from human iPS cells; test: Albumin secreted into the culture medium measured by ELISA; assay type: cell-based; conditions: 1 μM in Stage 3, 8 days
Procedure: The effects of analogous compounds (adrenergic receptor agonist, in particular, an agent having α receptor stimulating action) serving as an alternative compound for a methoxamine hydrochloride were checked. […] Furthermore, the amount of albumin secreted from the obtained cell population into the culture mediumliquid was measured by ELISA.

[3] = tested on: cells obtained in Stage 2 (from human iPS cells); test: ICG (indocyanine green) uptake by induced cells; assay type: cell-based; conditions: agent in Stage 3 for 8 days (methoxamine hydrochloride 1 μM; HGF and oncostatin M 20 ng/ml each); 1 mg/ml ICG, 1 hour
Procedure: (§1) 1 mg/ml ICG (indocyanine green) (Sigma) was added to each cell population and cultured for 1 hour. Then, ICG uptake by the cells was observed.

[4] = tested on: cells obtained in Stage 2 (from human iPS cells); test: Oil Red staining of induced cells; assay type: cell-based; conditions: agent in Stage 3 for 8 days
Procedure: as §1
The cells induced in the presence of HGF+OsM, methoxamine hydrochloride or DMSO and HepG2 were stained with Oil Red.

[5] = tested on: cells obtained in Stage 2 (from human iPS cells); test: PAS staining of induced cells (glycogen accumulation); assay type: cell-based; conditions: agent in Stage 3 for 8 days
Procedure: as §1
The cells induced in the presence of HGF+OsM, methoxamine hydrochloride or DMSO, and HepG2 were stained with PAS.

[6] = tested on: hepatocytes induced from human iPS cells; test: Gene expression profile by RNA sequencing analysis (PCA, liver marker heat map); assay type: cell-based
Source text: The hepatocytes induced from human iPS cells were subjected to RNA sequencing analysis and gene expression profiles were compared.

[7] = tested on: Mouse ES cells (D3 cell line); test: Mouse ES cell-derived cells immunostained with anti-albumin, anti-Cyp3a4 and anti-C/ebpβ antibodies; assay type: cell-based; conditions: Stage 3, 8 days; compared with HGF+OsM
Procedure: The content ratio of Sox17-positive cells was determined.
The content ratio of AFP-positive cells was determined.
The cells were cultured for 8 days.
The cells cultured in the medium containing methoxamine in Stage 3 for 8 days, the cells cultured in the medium containing HGF+OsM (positive control) in the same manner as above and also the cells cultured in the medium containing DMSO (negative control) were used. These cells were immuno-stained with an anti-albumin antibody (Albumin), anti-Cyp3a4 antibody and anti-C/ebpβ antibody.

[8] = tested on: CYP3A4; test: CYP3A4 expression in induced cells (immunostaining and quantitative PCR)
Procedure: A cell population obtained by culturing the cells obtained in Stage 2 in a Hepatocyte Culture Medium (HCM SingleQuots Kit) containing 20 ng/ml HGF and 20 ng/ml oncostatin M (HGF+OsM) for 8 days; a cell population obtained by culturing the cells obtained in Stage 2 in a Hepatocyte Culture Medium (HCM SingleQuots Kit) supplemented with 1 μM methoxamine hydrochloride for 8 days; a cell population obtained by culturing the cells obtained in Stage 2 in a Hepatocyte Culture Medium (HCM SingleQuots Kit) supplemented with 1 μM pregnenolone for 8 days; and a cell population obtained by culturing the cells obtained in Stage 2 in a Hepatocyte Culture Medium (HCM SingleQuots Kit) supplemented with DMSO for 8 days were immuno-stained with a CYP3A4 antibody (Proteintech Group) (FIG. 9A). […] CYP3A4mRNA expression levels were measured in these cell populations by quantitative PCR in the same manner as above.

[9] = tested on: Mouse ES cells (D3 cell line); test: Induction of hepatocytes from mouse ES cells: expression of Tat, Cyp3a11, Cyp3a13; conditions: 1 μM in Stage 3, 8 days; compared with HGF+OsM
Procedure: In order to remove feeder cells, the cells were seeded in a plate coated with gelatin. Ten to twenty minutes later, the supernatant containing the ES cells and the culture medium was collected, then the cells were seeded in a 24-well plate coated with Matrigel basement Membrance Matrix Growth Factor Reduced (BD) such that the cells were placed in a rate of 2.0×10^4-8.0×10^4 cells/well. The cells were cultured in RPMI1640 supplemented with 1 μM CHIR99021 (Axon Medchem), 100 ng/ml Activin A (R&D systems), 2% B27 (Invitrogen) and 0.5% PenStrep (Invitrogen) for one day (Stage 1-1) (day 1).
Subsequently, 0.5 mM NaB (Sigma) was added to the medium and the cells were cultured for one day (Stage 1-2) (day 2). The medium was removed and the cells were cultured in RPMI1640 supplemented with 0.5 mM NaB (Sigma), 1 μM CHIR99021 (Axon Medchem), 100 ng/ml Activin A (R&D systems), 2% B27 (Invitrogen) and 0.5% PenStrep (Invitrogen) for 4 days (Stage 1-3) (day 6). The cells obtained in the above steps were stained with a Sox17 antibody. The content ratio of Sox17-positive cells was determined.
After completion of Stage 1, the medium was exchanged with Knockout™ DMEM (Invitrogen) supplemented with 1% DMSO, 20% KSR (Invitrogen), 1 mM L-glutamic acid, 1% NEAA (Invitrogen), 0.1 mM β mercaptoethanol, 0.5 mM NaB (Sigma) and 0.5% PenStrep. […] The content ratio of AFP-positive cells was determined. […]

[10] = tested on: adrenergic α1 receptor; test: Mechanism study: albumin secretion with adrenergic receptor blocking agents added with methoxamine in Stage 3; assay type: cell-based, human; conditions: 10 μM blocking agent added with methoxamine in Stage 3, 8 days
Procedure: To study the mechanism of methoxamine to increase the efficacy of hepatocyte induction, adrenergic receptor blocking agents against each adrenergic receptor were added and the secretions of albumin from the resulting cells were measured. […] Methoxamine and each adrenergic receptor blocking agent were added in Stage 3. The adrenergic receptor blocking agents used herein were as follows: 10 μM doxazosin (Sigma) as an α1 blocking agent; 10 μM yohimbine (Sigma) as an α2 blocking agent; and 10 μM metoprolol (Sigma) as a β1 blocking agent; and 10 μM butoxamine (Sigma) as a β2 blocking agent.

[11] = tested on: CYP1A1; test: Drug metabolizing enzyme induction reaction: CYP1A1 mRNA by quantitative PCR; assay type: in vitro ADME, human; conditions: 100 μM omeprazole, 2 days
Procedure: A cell population obtained by culturing the cell population obtained in Stage 2 in a Hepatocyte Culture Medium (HCM SingleQuots Kit) supplemented with 20 ng/ml HGF and 20 ng/ml oncostatin M (HGF+OsM) for 8 days; and a cell population obtained by culturing the cell population obtained in Stage 2 in a Hepatocyte Culture Medium (HCM SingleQuots Kit) supplemented with 1 μM methoxamine hydrochloride for 8 days; Panc1 (human pancreatic cancer-derived cell line: Riken Bioresource Center); and HepG2 (human hepatocarcinoma-derived cell line) were used. Each of the cell populations was cultured in a Hepatocyte Culture Medium (HCM SingleQuots Kit) in the presence or absence of 100 μM omeprazole (Sigma) for 2 days, and thereafter, CYP1A1 mRNA expression level was measured by quantitative PCR. […] The amount of CYP1A1 mRNA relative to β actin mRNA was obtained and used as relative expression level of CYP1A1.

COc1ccc(OC)c(C(O)C(C)N)c1 (centres unmarked) [methoxamine hydrochloride]
concentration at which albumin-expressing cells were obtained (albumin mRNA, quantitative PCR) ([1]; Stage 3, 8 days, tested 0 M, 1 fM, 1 pM, 1 nM, 1 μM, 50 μM, 100 μM): ≥ 1 fM | amount of albumin secreted into the culture medium (ELISA) [2]: cells having an ability to secrete albumin can be induced | ICG uptake by the induced cells [3]: ICG uptake was observed | Oil Red staining (lipid drops) of the induced cells [4]: accumulation of lipid drops was observed in some of the cells | PAS staining (glycogen) of the induced cells [5]: stained red-purple | gene expression profile compared with hepatocytes induced by HGF and OsM [6]: substantially the same gene expression profile | immunostaining for Albumin, Cyp3a4 and C/ebpβ [7]: very similar expression was observed

CC(=O)[C@H]1CC[C@H]2[C@@H]3CC=C4C[C@@H](O)CC[C@]4(C)[C@H]3CC[C@]12C [pregnenolone]
induction of albumin-positive cells at two concentrations ([1]; pregnenolone 150 nM and 1 μM in Stage 3): the same results were obtained | CYP3A4 immunostaining of the induced cells ([8]; agent in Stage 3 for 8 days (1 μM; HGF and oncostatin M 20 ng/ml each)): Cells expressing CYP3A4 were found | CYP3A4 mRNA expression level (quantitative PCR) ([8]; agent in Stage 3 for 8 days, relative to cells induced with DMSO): intensively expressed | expression of Tat, Cyp3a11 and Cyp3a13 [9]: express the same drug metabolizing enzymes as in the case where HGF+OsM was used

COc1cc2nc(N3CCN(C(=O)C4COc5ccccc5O4)CC3)nc(N)c2cc1OC (centres unmarked) [doxazosin]
volume of albumin secretion [10]: decreased

CNC[C@H](O)c1cccc(O)c1 [phenylephrine]
amount of albumin secreted into the culture medium (ELISA) [2]: cells having an ability to secrete albumin can be induced

CCNCC(O)c1cccc(O)c1 (centres unmarked) [etilefrine]
amount of albumin secreted into the culture medium (ELISA) [2]: cells having an ability to secrete albumin can be induced

COc1ccc2[nH]c([S+]([O-])Cc3ncc(C)c(OC)c3C)nc2c1 (centres unmarked) [omeprazole]
CYP1A1 mRNA expression level ([11]; HepG2 cells): expression of CYP1A1 was induced | CYP1A1 mRNA expression level ([11]; cell population induced with 1 μM methoxamine hydrochloride in Stage 3): expression of CYP1A1 was induced | CYP1A1 mRNA expression level ([11]; cell population induced with HGF+OsM in Stage 3): expression of CYP1A1 was induced

— patent US10711249B2, “Method for inducing hepatocytes” (KYOTO UNIVERSITY, priority 2014, dated 2020)
